Test results taken from patent US10947203B2, “1,4,5-substituted 1,2,3-triazole analogues as antagonists of the pregnane X receptor” (ST. JUDE CHILDREN'S RESEARCH HOSPITAL, priority 2016, dated 2021).

Key:
[1] = tested on: primary human hepatocytes (PHHs); assay: midazolam metabolism in primary human hepatocytes pretreated with hPXR agonist; assay type: cell-based; settings: 10 μM test compound; 72 hr pretreatment with DMSO, 1.6 μM RIF, 0.5 or 5 μM PTX; then 3.3 μM MDZ 4 h; FIG. 1A
Experimental: (§1) The concentrations of 1′-OH MDZ (MDZ metabolite) in the media of each pretreatment condition were determined using LC/MS/MS as described in the Examples. […] PHHs were also treated with 1 μM of PTX in the absence and presence of 10 μM of the test compound, and then the concentrations of major PTX metabolites, 3-OH PTX (by CYP3A4) and 6α-OH PTX (by CYP2C8), were determined using LC/MS/MS at 24 hr and 48 hr of treatment, respectively.
(§2) Midazolam and 1-OH midazolam were from BD Gentest. Midazolam-D4 maleate (internal standard, IS) was from Cerilliant; Paclitaxel and 3′-p-hydroxypaclitaxel were from Sigma; and 6u-hydroxy Paclitaxel was from Cayman Chemical. 100 μl of reaction medium at each different time point was collected and 200 μl of acetonitrile containing IS was added. This solution was then vigorously mixed for 10 min and centrifuged at 10,000 rpm for 10 min. Calibration and quality control samples were prepared. 5 μl of the samples was injected onto a Waters Acquity UPLC BEH C18 column (2.1x 50 mm, 1.7 μm), using a Waters Acquity UPLC system. Chromatographic separation was performed by gradient elution at a constant flow rate of 1 mL/min for 15 min. The gradient consisted of 0.1% formic acid water (mobile phase A) and methanol (mobile phase B). […] Nitrogen was applied as curtain, collision and drying gas at 60 psi. […]

[2] = tested on: hPXR-mediated CYP3A4 promoter reporter activity; assay: CYP3A4 promoter reporter activity in hPXR-CYP3A4-luc reporter mice (bioluminescence imaging); assay type: in vivo, mouse; settings: RIF 10 mg/kg plus test compound 150 mg/kg every 24 h for 2 days; imaging 10 h after last treatment; FIG. 4
Experimental: Individual mouse received 3 rounds of sequential treatment of vehicle control (Vehicle), RIF (10 mg/kg) and RIF (10 mg/kg) plus the test compound (150 mg/kg) every 24 h for 2 days, respectively, with a washout period of 72-hour between two rounds of treatment. The luciferase activity in these reporter mice was recorded by bioluminescence imaging 10 h after the last treatment of each round, and the induction of CYP3A4 promoter reporter activity was calculated as described in Examples. Each data point represents the induction of CYP3A4 promoter reporter activity by the treatment in an individual mouse, and dos lines indicate the CYP3A4 promoter reporter activity change in individual mouse after following round of treatment. p values are indicated between the two treatment compared by paired t test.
10 hours after the last treatment of each round, the mice were imaged as described above. Uniform regions of interest were drawn around the liver, and total photon flux was analyzed with Living Image 3.2 software (Xenogen). The induction of CYP3A4-luc reporter activity was calculated using the imaging from the same mouse as follows: induction rate=total photon flux (after treatment)/total photon flux (before treatment).

[3] = tested on: RIF-induced metabolism of the anesthetic (CYP3A11); assay: loss of righting reflex (LORR) assay in hPXR-tg mice; assay type: in vivo, mouse; settings: RIF 10 mg/kg plus test compound 200 mg/kg every 24 h for three days, FIG. 5
Experimental: Loss of righting reflex (LORR) duration was recorded as described in Examples to measure metabolism of the anesthetic ([…]) in hPXR-tg, mice before and after treatment with vehicle, RIF, and RIF plus the test compound as indicated. Each data point represents LORR duration in an individual mouse; lines indicate LORR duration change in individual mouse before and after treatment. P values indicate comparison of values by paired t test.
Mice were intraperitoneally injected with 250 mg/kg of 2,2,2-tribromoethanol, which is metabolically cleared only via mouse CYP3A11. After the mice lost their righting reflex, they were placed on their backs under a heat lamp. The duration of LORR was measured as the time from the start of LORR to recovery (i.e., when mice could right themselves after being placed on their backs twice within 1 min). A baseline LORR duration was established for each mouse at the administered dose of 2,2,2-tribromoethanol. […] The paired Student's t-test was used to compare LORR duration between baseline and after treatment. A P value <0.05 was considered to indicate a significant difference between compared groups.

[4] = tested on: hPXR-mediated increase in CYP3A expression; assay: liver Cyp3a11 mRNA and CYP3A protein in hPXR-tg mice; assay type: in vivo, mouse; settings: RIF 10 mg/kg plus test compound 200 mg/kg, 72 h, FIGS. 3A-3C
Experimental: Briefly, mouse liver Cyp3a11 mRNA was analyzed by real-time PCR in hPXR-tg mice treated with vehicle control (Vehicle), RIF (10 mg/kg) or RIF (10 mg/kg) plus test compound (200 mg/kg) for 72 h. Each data point represents the level of Cyp3a11 mRNA (FIG. 3A) or protein (FIG. 3B) in an individual mouse; lines indicate the mean value for 3-7 mice per group.
hPXR-tg mice were generated previously (Xie et al., 2000). Five mice in each group were dosed orally with vehicle control or 10 mg/kg RIF, every 24 h for three days. Eight hours after the last dose, the animals were euthanized by C02 and liver tissues were harvested. A piece of each liver was preserved in RNAlater solution (Invitrogen) at 4° C. for mRNA isolation. The remaining tissue was instantly frozen in liquid nitrogen and stored at −80° C. for total protein extraction. […]

[5] = tested on: primary human hepatocytes (PHHs); assay: paclitaxel metabolism in primary human hepatocytes; assay type: cell-based; settings: 1 μM PTX with 10 μM test compound; 24 and 48 hr; FIGS. 1B, 1C
Experimental: as §1, §2

Compound: COc1ccc(OC)c(-n2nnc(S(=O)(=O)c3ccc(C(C)(C)C)cc3)c2C)c1 [4-((4-(tert-butyl)phenyl)sulfonyl)-1-(2,5-dimethoxyphenyl)-5-methyl-1H-1,2,3-triazole]
- metabolism of MDZ (1′-OH MDZ concentration in media) [1]: essentially blocked
- RIF-induced expression of the reporter under the control of the CYP3A4 promoter [2]: significantly reduced
- RIF-induced metabolism of the anesthetic, as determined by LORR duration [3]: significantly inhibited
- hPXR-mediated increase in CYP3A expression (liver Cyp3a11 mRNA, CYP3A protein) [4]: inhibits the hPXR-mediated increase in CYP3A expression
- metabolism of PTX to 3-OH PTX and 6α-OH PTX [5]: effectively blocked
